Data: PubChem BioAssay (NCI)
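The compound was tested at five concentrations on cells cultured in 96-well plates, with a 48-hour exposure period. GI50: concentration for 50% inhibition of growth. The concentration for full growth arrest is given as TGI.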

Key:
Test in all cases: DTP human tumour cell line panel, 48 h
IGROV1 ovarian = system: IGROV1 ovarian
DU-145 prostate = system: DU-145 prostate
UACC-257 melanoma = system: UACC-257 melanoma
A549 NSCLC = system: A549 NSCLC
SF-268 CNS = system: SF-268 CNS
MCF7 breast = system: MCF7 breast
NCI-H23 lung = system: NCI-H23 lung
HCT-116 colon = system: HCT-116 colon
BT-549 breast = system: BT-549 breast
SR leukemia = system: SR leukemia
TK-10 renal = system: TK-10 renal
SK-MEL-5 melanoma = system: SK-MEL-5 melanoma
HL-60(TB) leukemia = system: HL-60(TB) leukemia
KM12 colon = system: KM12 colon
NCI-H522 lung = system: NCI-H522 lung
M14 melanoma = system: M14 melanoma
OVCAR-8 ovarian = system: OVCAR-8 ovarian
UACC-62 melanoma = system: UACC-62 melanoma
COLO 205 colon = system: COLO 205 colon
OVCAR-4 ovarian = system: OVCAR-4 ovarian
SW-620 colon = system: SW-620 colon
NCI-H460 lung = system: NCI-H460 lung
MDA-N = system: MDA-N
OVCAR-3 ovarian = system: OVCAR-3 ovarian
SN12C renal = system: SN12C renal
MOLT-4 leukemia = system: MOLT-4 leukemia
HCT-15 colon = system: HCT-15 colon
SK-MEL-28 melanoma = system: SK-MEL-28 melanoma
EKVX NSCLC = system: EKVX NSCLC
RPMI-8226 leukemia = system: RPMI-8226 leukemia
HS 578T breast = system: HS 578T breast
RXF 393 renal = system: RXF 393 renal
CAKI-1 renal = system: CAKI-1 renal
SNB-75 CNS = system: SNB-75 CNS
U251 CNS = system: U251 CNS
A498 renal = system: A498 renal
MDA-MB-435 = system: MDA-MB-435
OVCAR-5 ovarian = system: OVCAR-5 ovarian
SK-OV-3 ovarian = system: SK-OV-3 ovarian
ACHN renal = system: ACHN renal
PC-3 prostate = system: PC-3 prostate
HOP-62 NSCLC = system: HOP-62 NSCLC
SF-295 CNS = system: SF-295 CNS
HOP-92 NSCLC = system: HOP-92 NSCLC
786-0 renal = system: 786-0 renal
HT29 colon = system: HT29 colon
HCC-2998 colon = system: HCC-2998 colon
MALME-3M melanoma = system: MALME-3M melanoma
SF-539 CNS = system: SF-539 CNS
NCI-H226 lung = system: NCI-H226 lung
SNB-19 CNS = system: SNB-19 CNS
NCI/ADR-RES ovarian = system: NCI/ADR-RES ovarian
UO-31 renal = system: UO-31 renal
LOX IMVI melanoma = system: LOX IMVI melanoma
CCRF-CEM leukemia = system: CCRF-CEM leukemia
K-562 leukemia = system: K-562 leukemia
SK-MEL-2 melanoma = system: SK-MEL-2 melanoma
T-47D breast = system: T-47D breast
MDA-MB-231 breast = system: MDA-MB-231 breast

SMILES: N#C/C(=C/NC(=S)Nc1ccc(S(N)(=O)=O)cc1)C(N)=O
- TGI (IGROV1 ovarian): > 100 µM
- TGI (DU-145 prostate): > 100 µM
- TGI (UACC-257 melanoma): > 100 µM
- TGI (A549 NSCLC): > 100 µM
- TGI (SF-268 CNS): > 100 µM
- TGI (MCF7 breast): > 100 µM
- TGI (NCI-H23 lung): > 100 µM
- TGI (HCT-116 colon): > 100 µM
- TGI (BT-549 breast): > 100 µM
- TGI (SR leukemia): > 100 µM
- TGI (TK-10 renal): > 100 µM
- TGI (SK-MEL-5 melanoma): > 100 µM
- TGI (HL-60(TB) leukemia): > 100 µM
- TGI (KM12 colon): > 100 µM
- TGI (NCI-H522 lung): > 100 µM
- TGI (M14 melanoma): > 100 µM
- TGI (OVCAR-8 ovarian): > 100 µM
- TGI (UACC-62 melanoma): > 100 µM
- TGI (COLO 205 colon): > 100 µM
- TGI (OVCAR-4 ovarian): > 100 µM
- TGI (SW-620 colon): > 100 µM
- TGI (NCI-H460 lung): > 100 µM
- TGI (MDA-N): > 100 µM
- TGI (OVCAR-3 ovarian): > 100 µM
- TGI (SN12C renal): > 100 µM
- TGI (MOLT-4 leukemia): > 100 µM
- TGI (HCT-15 colon): > 100 µM
- TGI (SK-MEL-28 melanoma): > 100 µM
- TGI (EKVX NSCLC): > 100 µM
- TGI (RPMI-8226 leukemia): > 100 µM
- TGI (HS 578T breast): > 100 µM
- TGI (RXF 393 renal): > 100 µM
- TGI (CAKI-1 renal): > 100 µM
- TGI (SNB-75 CNS): > 100 µM
- TGI (U251 CNS): > 100 µM
- TGI (A498 renal): > 100 µM
- TGI (MDA-MB-435): > 100 µM
- TGI (OVCAR-5 ovarian): > 100 µM
- TGI (SK-OV-3 ovarian): > 100 µM
- TGI (ACHN renal): > 100 µM
- TGI (PC-3 prostate): > 100 µM
- TGI (HOP-62 NSCLC): > 100 µM
- TGI (SF-295 CNS): > 100 µM
- TGI (HOP-92 NSCLC): > 100 µM
- TGI (786-0 renal): > 100 µM
- TGI (HT29 colon): > 100 µM
- TGI (HCC-2998 colon): > 100 µM
- TGI (MALME-3M melanoma): > 100 µM
- TGI (SF-539 CNS): > 100 µM

SMILES: C#Cc1cccc(NC(=O)Nc2cccc(NC(=O)CCl)c2)c1
- GI50 (NCI-H226 lung): 21.6 µM
- TGI (NCI-H226 lung): 75.2 µM
- GI50 (IGROV1 ovarian): 11.6 µM
- TGI (IGROV1 ovarian): 26 µM
- GI50 (DU-145 prostate): > 82.5 µM
- TGI (DU-145 prostate): > 82.5 µM
- GI50 (UACC-257 melanoma): > 82.5 µM
- TGI (UACC-257 melanoma): > 82.5 µM
- GI50 (A549 NSCLC): > 82.5 µM
- TGI (A549 NSCLC): > 82.5 µM
- GI50 (SNB-19 CNS): > 82.5 µM
- TGI (SNB-19 CNS): > 82.5 µM
- GI50 (SF-268 CNS): 25.7 µM
- TGI (SF-268 CNS): > 82.5 µM
- GI50 (MCF7 breast): 21.7 µM
- TGI (MCF7 breast): > 82.5 µM
- GI50 (NCI-H23 lung): 14 µM
- TGI (NCI-H23 lung): 31.2 µM
- GI50 (HCT-116 colon): 20.9 µM
- TGI (HCT-116 colon): > 82.5 µM
- GI50 (BT-549 breast): 16.3 µM
- TGI (BT-549 breast): > 82.5 µM
- GI50 (NCI/ADR-RES ovarian): 20.1 µM
- TGI (NCI/ADR-RES ovarian): 75.7 µM
- GI50 (SR leukemia): 12.9 µM
- TGI (SR leukemia): > 82.5 µM
- GI50 (TK-10 renal): 38 µM
- TGI (TK-10 renal): > 82.5 µM
- GI50 (SK-MEL-5 melanoma): 15.7 µM
- TGI (SK-MEL-5 melanoma): 36.2 µM
- GI50 (HL-60(TB) leukemia): 18.6 µM
- TGI (HL-60(TB) leukemia): 73.9 µM
- GI50 (KM12 colon): 58.6 µM
- TGI (KM12 colon): > 82.5 µM
- GI50 (NCI-H522 lung): 15.2 µM
- TGI (NCI-H522 lung): 48.6 µM
- GI50 (M14 melanoma): 23.6 µM
- TGI (M14 melanoma): > 82.5 µM
- GI50 (OVCAR-8 ovarian): 23.1 µM
- TGI (OVCAR-8 ovarian): > 82.5 µM
- GI50 (UACC-62 melanoma): 33.1 µM
- TGI (UACC-62 melanoma): > 82.5 µM
- GI50 (COLO 205 colon): 58.7 µM
- TGI (COLO 205 colon): > 82.5 µM
- GI50 (OVCAR-4 ovarian): 12 µM
- TGI (OVCAR-4 ovarian): 29.5 µM
- GI50 (SW-620 colon): 16.9 µM
- TGI (SW-620 colon): 37.3 µM
- GI50 (NCI-H460 lung): 27.3 µM
- TGI (NCI-H460 lung): > 82.5 µM
- GI50 (UO-31 renal): > 82.5 µM
- TGI (UO-31 renal): > 82.5 µM
- GI50 (OVCAR-3 ovarian): 14.6 µM
- TGI (OVCAR-3 ovarian): 36.5 µM
- GI50 (SN12C renal): 17.3 µM
- TGI (SN12C renal): 49.9 µM
- GI50 (MOLT-4 leukemia): 12.5 µM
- TGI (MOLT-4 leukemia): 81.4 µM
- GI50 (HCT-15 colon): 11.8 µM
- TGI (HCT-15 colon): 26.7 µM
- GI50 (SK-MEL-28 melanoma): > 82.5 µM
- TGI (SK-MEL-28 melanoma): > 82.5 µM
- GI50 (LOX IMVI melanoma): 13.2 µM
- TGI (LOX IMVI melanoma): 27 µM
- GI50 (CCRF-CEM leukemia): 10.9 µM
- TGI (CCRF-CEM leukemia): 68.6 µM
- GI50 (EKVX NSCLC): > 82.5 µM
- TGI (EKVX NSCLC): > 82.5 µM
- GI50 (RPMI-8226 leukemia): 12.5 µM
- TGI (RPMI-8226 leukemia): 48.3 µM
- GI50 (HS 578T breast): 21.2 µM
- TGI (HS 578T breast): > 82.5 µM
- GI50 (RXF 393 renal): 13.4 µM
- TGI (RXF 393 renal): 63.6 µM
- GI50 (CAKI-1 renal): > 82.5 µM
- TGI (CAKI-1 renal): > 82.5 µM
- GI50 (SNB-75 CNS): 8.67 µM
- TGI (SNB-75 CNS): > 82.5 µM
- GI50 (U251 CNS): 16.4 µM
- TGI (U251 CNS): 39.3 µM
- GI50 (A498 renal): 1.22 µM
- TGI (A498 renal): > 82.5 µM
- GI50 (K-562 leukemia): 22.8 µM
- TGI (K-562 leukemia): > 82.5 µM
- GI50 (MDA-MB-435): 24.2 µM
- TGI (MDA-MB-435): > 82.5 µM
- GI50 (SK-MEL-2 melanoma): 32.7 µM
- TGI (SK-MEL-2 melanoma): > 82.5 µM
- GI50 (OVCAR-5 ovarian): 21.9 µM
- TGI (OVCAR-5 ovarian): 63.9 µM
- GI50 (SK-OV-3 ovarian): 46.5 µM
- TGI (SK-OV-3 ovarian): > 82.5 µM
- GI50 (ACHN renal): 41.5 µM
- TGI (ACHN renal): > 82.5 µM
- GI50 (PC-3 prostate): 37.8 µM
- TGI (PC-3 prostate): > 82.5 µM
- GI50 (HOP-62 NSCLC): 63.6 µM
- TGI (HOP-62 NSCLC): > 82.5 µM
- GI50 (SF-295 CNS): > 82.5 µM
- TGI (SF-295 CNS): > 82.5 µM
- GI50 (HOP-92 NSCLC): > 82.5 µM
- TGI (HOP-92 NSCLC): > 82.5 µM
- GI50 (786-0 renal): 25 µM
- TGI (786-0 renal): > 82.5 µM
- GI50 (T-47D breast): 32.1 µM
- TGI (T-47D breast): > 82.5 µM
- GI50 (MDA-MB-231 breast): 22.9 µM
- TGI (MDA-MB-231 breast): 65.2 µM
- GI50 (HT29 colon): 17.8 µM
- TGI (HT29 colon): 53.5 µM
- GI50 (HCC-2998 colon): > 82.5 µM
- TGI (HCC-2998 colon): > 82.5 µM
- GI50 (MALME-3M melanoma): 20.7 µM
- TGI (MALME-3M melanoma): > 82.5 µM
- GI50 (SF-539 CNS): 14 µM
- TGI (SF-539 CNS): 27.8 µM
